According to patent US20240382508A1, “REGENERATIVE AGENT FOR BONE TISSUE AND LUNG TISSUE, AND PHARMACEUTICAL COMPOSITION FOR REGENERATING BONE TISSUE AND LUNG TISSUE” (NIIGATA UNIVERSITY, priority 2021, published 2024):

Assays:
[1] = tested on: α-SMA-positive mesenchymal stem cells; experiment: immunofluorescence staining of periodontal tissue of experimental periodontitis mice; assay type: in vivo, mouse; settings: wild-type mice; jawbone slices
Protocol: Next, jawbones of the wild-type mice to which erythromycin had or had not been administered were extracted and fixed, and then slice preparations were produced. Next, immunofluorescence staining was performed by using an anti-α-SMA antibody (manufactured by Abcam, Ltd.) fluorescently labeled with Alexa Fluor (registered trademark) 488 (manufactured by Thermo Fisher Scientific, Inc.), an anti-CD31/PECAM-1 antibody (manufactured by Thermo Fisher Scientific, Inc.) fluorescently labeled with Alexa Fluor (registered trademark) 647 (manufactured by Thermo Fisher Scientific, Inc.), and an anti-Ki67 antibody (manufactured by R&D Systems, Inc.) fluorescently labeled with Alexa Fluor (registered trademark) 594 (manufactured by Thermo Fisher Scientific, Inc.). Observation images (magnification: 200 times) obtained with a fluorescence microscope (ECLIPSE Ni-E, manufactured by Nikon Corporation) are shown in FIG. 5.

[2] = tested on: osteoblasts; experiment: bone nodule measurement in osteoblasts (Alizarin red S); assay type: cell-based, mouse; settings: for formation of bone nodules (FIG. 1): erythromycin 10 μg/mL
Protocol: Next, from the cranial bones of 3-day-old wild-type mice (N=6, male C57BL/6N mice, manufactured by CLEA Japan, Inc.) and 3-day-old DEL-1-deficient mice (N=6, male C57BL/6N mice (manufactured by CLEA Japan, Inc.), a method for producing the deficient mice was as described in Non Patent Document 1), osteoblasts were isolated by allowing 0.1% by mass of type 1 collagenase and 0.2% by mass of dispase to act at 37° C. for 20 minutes, and the cells were cultured in α-MEM and a bone differentiation medium (containing 50 μg/ml ascorbic acid and 10 mM β-glycerol 2-phosphate). Ethanol (final concentration 0.1% by mass) and erythromycin (10 μg/mL) were added into the medium in which the osteoblasts (1×10^4 cells/mL) derived from the wild-type mice or the DEL-1-deficient mice were cultured. The medium was exchanged every 3 days, and after 15 days, the cells were stained with Alizarin red S, followed by performing of bone nodule measurement.
Next, the proportion (%) of bone nodules with respect to the observation region in the above-described osteoblasts was calculated from microscopic images by using image processing software (NIH Image). In addition, RNA was extracted from each of the osteoblasts by using an RNeasy Kit (manufactured by QIAGEN NV), subsequently cDNA was synthesized by using a cDNA synthesis kit (manufactured by Thermo Fisher Scientific, Inc.), and the relative expression levels of RUNX2 mRNA, Sp7 mRNA, and Bglap mRNA, which are important for bone regeneration, were checked by an RT-PCR method (Quantstudio3, Thermo Fisher Scientific, Inc.). Regarding primers, designed primers manufactured by Thermo Fisher Scientific, Inc. were used. The Assay IDs of the primers used are shown below.
(Bone regeneration-inducing effect 2 by various macrolide antimicrobial agents) From the cranial bones of 3-day-old wild-type mice (N=6, male C57BL/6N mice, manufactured by CLEA Japan, Inc.), osteoblasts were isolated by allowing 0.1% by mass of type 1 collagenase and 0.2% by mass of dispase to act at 37° C. for 20 minutes, and the cells were cultured in α-MEM and a bone differentiation medium (containing 50 μg/ml ascorbic acid and 10 mM β-glycerol 2-phosphate). Ethanol (final concentration 0.1% by mass), or erythromycin, clarithromycin, or azithromycin (10 μg/mL each) was added into the medium in which the osteoblasts (1×10^4 cells/mL) derived from the wild-type mice were cultured. The medium was exchanged every 3 days, and after 15 days, the cells were stained with Alizarin red S, followed by performing of bone nodule measurement. The results are shown in FIG. 11 In FIG. 11, the symbol * indicates p<0.05, and the symbol ** indicates p<0.01. In addition, the control is an ethanol (final concentration 0.1% by mass)-added group.

[3] = tested on: acute lung disorder mice; experiment: LPS-induced acute lung disorder, HE staining of lung tissue; assay type: in vivo, mouse; settings: 10 mg/kg intraperitoneally once a day for two weeks
Protocol: Acute lung disorder was induced by administering lipopolysaccharide (LPS) to the tracheae and bronchi of mice (the details of a production method were as described in Non Patent Document 1). Erythromycin (10 mg/kg) was administered to 6-week-old wild-type mice (N=4, male C57BL/6N mice, manufactured by CLEA Japan, Inc.) and 6-week-old DEL-1-deficient mice (N=4, male C57BL/6N mice (manufactured by CLEA Japan, Inc.), a method for producing the deficient mice was as described in Non-Patent Document 1), by intraperitoneal administration once a day for a total of two weeks. After the administration, the lungs were extracted from each mouse and fixed, and then slice preparations were produced. Next, hematoxylin and eosin (HE) staining was performed. Observation images (magnifications: 10 times and 200 times) obtained with a microscope (manufactured by Nikon Corporation, ECLIPSE Ni-E) are shown in FIG. 7A to 7C.

[4] = tested on: DEL-1; settings: versus resolvin D1 or DHEA; Non-Patent Document 1; cited from earlier work

Compound: CC[C@H]1OC(=O)[C@H](C)[C@@H](O[C@H]2C[C@@](C)(OC)[C@@H](O)[C@H](C)O2)[C@H](C)[C@@H](O[C@@H]2O[C@H](C)C[C@H](N(C)C)[C@H]2O)[C@](C)(O)C[C@@H](C)C(=O)[C@H](C)[C@@H](O)[C@]1(C)O [erythromycin]
- proportion of α-SMA-positive mesenchymal stem cells (FIG. 5) [1]: the proportion of α-SMA-positive mesenchymal stem cells was increased
- proportion of bone nodules (FIG. 2) ([2]; osteoblasts derived from DEL-1-deficient mice): an increase in the proportion of bone nodules was not recognized
- formation of bone nodules (FIG. 1) ([2]; osteoblasts derived from DEL-1-deficient mice, 15 days): the formation of bone nodules was not recognized
- proportion of bone nodules (FIG. 2) ([2]; osteoblasts derived from wild-type mice): significant increases in the proportion of bone nodules was recognized
- formation of bone nodules (FIG. 11) ([2]; osteoblasts derived from wild-type mice, 10 μg/mL each, 15 days): the formation of bone nodules was recognized
- formation of bone nodules (FIG. 1) ([2]; osteoblasts derived from wild-type mice, 15 days): the formation of bone nodules was recognized
- tissue repair and restructuring of the alveolar structure (FIG. 7C) ([3]; DEL-1-deficient mouse): normal tissue repair and restructuring of the alveolar structure were not recognized
- tissue repair and restructuring of the alveolar structure (FIG. 7B) ([3]; wild-type mouse): normal tissue repair and restructuring of the alveolar structure were recognized
- DEL-1 induction potency relative to resolvin D1 or DHEA [4]: about three
